Experiments:
Type in all cases: functional, cell-based
BEL-7404 tumor cell line [1] = assay: In vitro antitumor activity against BEL-7404 tumor cell lines at 10e-4 mol/L conentation; settings: Homo sapiens
BEL-7404 tumor cell line [2] = assay: In vitro antitumor activity against BEL-7404 tumor cell lines at 10e-5 mol/L conentation; settings: Homo sapiens
BEL-7404 tumor cell line [3] = assay: In vitro antitumor activity against BEL-7404 tumor cell lines at 10e-6 mol/L conentation; settings: Homo sapiens
BEL-7404 tumor cell line [4] = assay: In vitro antitumor activity against BEL-7404 tumor cell lines at 10e-8 mol/L conentation; settings: Homo sapiens
P388 [5] = assay: In vitro antitumor activity against P388 tumor cell lines at 10e-4 mol/L conentation; settings: Mus musculus
P388 [6] = assay: In vitro antitumor activity against P388 tumor cell lines at 10e-5 mol/L conentation; settings: Mus musculus
BEL-7404 tumor cell line [7] = assay: In vitro antitumor activity against BEL-7404 tumor cell lines at 10e-7 mol/L conentation; settings: Homo sapiens

Copper complex with 1,4,7,10-tetrakis(2-cyanolethyl-)-l,4,7,10-tetraazacyclododecane
inhibition (BEL-7404 tumor cell line [1]): 63.3%
inhibition (BEL-7404 tumor cell line [2]): 75.6%
inhibition (BEL-7404 tumor cell line [3]): 78%
inhibition (BEL-7404 tumor cell line [4]): 10%
inhibition (P388 [5]): 100%
inhibition (P388 [6]): 96.4%
inhibition (BEL-7404 tumor cell line [7]): 5.6%
